For 1 cell line, relative viability results are on record in the supplement of paper PMC10307832.

Test in all cases: relative viability (nuclei count vs DMSO), 5 days (fraction); higher = more cells survive
Compound in the experiment “Salubrinal + Linsitinib”: O=C(/C=C/c1ccccc1)NC(NC(=S)Nc1cccc2cccnc12)C(Cl)(Cl)Cl [Salubrinal] + C[C@]1(O)C[C@@H](c2nc(-c3ccc4ccc(-c5ccccc5)nc4c3)c3c(N)nccn32)C1 [Linsitinib] (partner 1 µM)
In outline: (§1)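 Relative viability equals treated-well nuclei counts divided by vehicle-well nuclei counts. Counts came from 4× images of lung cancer cell lines grown in 1536-well plates for 5 days after pin-tool dosing on the day after seeding. Dosing used one drug alone or a fixed anchor-drug dose plus five library-drug doses (not always all listed) in √10 steps, and values are medians of duplicate plates.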

Compound in the experiment “Salubrinal + Pictilisib”: O=C(/C=C/c1ccccc1)NC(NC(=S)Nc1cccc2cccnc12)C(Cl)(Cl)Cl [Salubrinal] + CS(=O)(=O)N1CCN(Cc2cc3nc(-c4cccc5[nH]ncc45)nc(N4CCOCC4)c3s2)CC1 [Pictilisib] (partner 1 µM)
The procedure, abridged: as §1

Compound in experiment [1]: Cc1ccc2nc(NCCN)c3ncc(C)n3c2c1 + COc1cccc2cc(-c3nc([C@H]4CC[C@H](C(=O)O)CC4)n4ncnc(N)c34)[nH]c12 [OSI-027] (partner 0.5 µM)
The procedure, abridged:
as §1

Compound in experiment [2]: Cc1ccc2nc(NCCN)c3ncc(C)n3c2c1 + O=C(CCCCCCC(=O)Nc1ccccc1)NO [Vorinostat] (partner 1 µM)
In outline:
as §1

As for UMC-11, the relative viability in the experiment with Salubrinal + Linsitinib (first compound 0.08 µM) was determined as 1.25; with Salubrinal + Linsitinib (first compound 0.253 µM) it was 0.807; with Salubrinal + Linsitinib (first compound 0.8 µM), 1.21; with Salubrinal + Linsitinib (first compound 2.53 µM), 0.998; in the experiment with Salubrinal + Linsitinib (first compound 8 µM), 0.955; in the experiment with Salubrinal + Pictilisib (first compound 0.08 µM) it was 0.655. The relative viability with Salubrinal + Pictilisib (first compound 0.253 µM) turned out to be 0.688; with Salubrinal + Pictilisib (first compound 0.8 µM), 1.02; with Salubrinal + Pictilisib (first compound 2.53 µM), 0.933; with Salubrinal + Pictilisib (first compound 8 µM), 0.882; in experiment [1] (first compound 0.04 µM) it was 0.51; in experiment [1] (first compound 0.1265 µM) it was 0.471. Moreover, the relative viability in experiment [1] (first compound 0.4 µM) was determined as 0.481; in experiment [1] (first compound 1.265 µM), 0.416; in experiment [1] (first compound 4 µM) it was 0.47; in experiment [2] (first compound 0.04 µM), 0.421; in experiment [2] (first compound 0.1265 µM), 0.344; in experiment [2] (first compound 0.4 µM), 0.372. For the same cell line, the relative viability turned out to be 0.371 in experiment [2] (first compound 1.265 µM) and 0.357 in experiment [2] (first compound 4 µM).
